Measurements taken from patent US9649295B2, “Chemical inhibitors of soluble adenylyl cyclase (sAC)” (Cornell Research Foundation, Inc., priority 2004, dated 2017).
Entries after “also recorded” stand apart in the source; their conditions may differ.

How the values were obtained:
[1] = test system: cAMP in INS-1E cells; assay: intracellular cAMP in INS-1E cells; format: cell-based
Method: Briefly, cells (passage 140-150) were plated at 2.5×10^5 cells/well in a 24 well plate and permitted to recover for two days. Cells were glucose starved by incubation for 1 hour in the presence of 2.5 mM glucose KRB medium supplemented with 2 mM sodium bicarbonate, 10 mM Hepes, and 0.1% BSA. After washing, cells were incubated in KRB with either 2.5 mM or 16 mM glucose in the presence of either vehicle control (DMSO or MeOH) or indicated drug. After the indicated time, removed media was cleared of cell debris and secreted insulin was measured by Insulin ELISA kit (Linco Research, St. Charles, Mo., or ALPCO, Windham, N.H.). If cAMP was to be concomitantly measured, cells were pre-treated with IBMX for the final 10 minutes of the glucose starvation and IBMX was included in all subsequent incubations. For the washout experiment, subsequent to initial insulin determination, cells treated with KH7 were placed in fresh KRB (2.5 mM glucose) for an additional hour and insulin release was measured as above in the absence of any added drug. For transferrin recycling, loading of cells with I^125 transferrin was performed during hour incubation in 2.5 mM glucose KRB.

[2] = test system: tmACs; assay: cAMP forming activity inside cells stimulated with forskolin; format: cell-based; conditions: read-out: in vivo IC50 tmAC (FSK)
[3] = test system: Candida albicans; assay: CO2 induced differentiation of Candida albicans into the filamentous stage; format: cell-based; conditions: similar dose dependency as on JR3
Source text: (§1) . FIG. 17A illustrates the bicarbonate dependence of the JR3 fragment; […];

[4] = target: catalytic portion of the sAC-like adenylyl cyclase from Candida albicans (fragment JR3) (Candida albicans, UniProt A0A1D8PR83); assay: biochemical
Chain of catalytic portion of the sAC-like adenylyl cyclase from Candida albicans (fragment JR3) (A0A1D8PR83 entry or part of it): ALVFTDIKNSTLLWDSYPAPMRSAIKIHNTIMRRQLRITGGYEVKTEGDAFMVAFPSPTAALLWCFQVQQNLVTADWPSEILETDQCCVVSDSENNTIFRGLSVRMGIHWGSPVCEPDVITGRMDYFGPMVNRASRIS
Source text: as §1

[5] = test system: sAC overexpressing INS-1E cells; assay: insulin secretion in sAC overexpressing INS-1E cells (SF2); format: cell-based; conditions: 30 μM KH7, 15 minutes
Source text: FIGS. 14A-C illustrate that sAC-generated cAMP, distinct from tmAC-generated cAMP, is sufficient to elicit insulin secretion. […] Shown is a representative assay repeated at least five times; values indicate duplicate determinations with standard deviations. […] Shown is a representative assay repeated at least five times; values indicate duplicate determinations with standard deviations. Insert is a Western blot indicating the levels of sAC protein in INS-1E, SF2, and SF5 cells. […] Values represent mean±SEM (n=3). ANOVA analysis was performed with asterisks indicating statistically significant differences. ***=p<0.001. […]
Briefly, cells (passage 140-150) were plated at 2.5×10^5 cells/well in a 24 well plate and permitted to recover for two days. […] After the indicated time, removed media was cleared of cell debris and secreted insulin was measured by Insulin ELISA kit (Linco Research, St. Charles, Mo., or ALPCO, Windham, N.H.). If cAMP was to be concomitantly measured, cells were pre-treated with IBMX for the final 10 minutes of the glucose starvation and IBMX was included in all subsequent incubations. For the washout experiment, subsequent to initial insulin determination, cells treated with KH7 were placed in fresh KRB (2.5 mM glucose) for an additional hour and insulin release was measured as above in the absence of any added drug. […]

[6] = test system: Plasmodium falciparum; assay: Plasmodium falciparum viability, luciferase assay; format: cell-based; conditions: 24 hours
Method: . Plasmodium cultures were incubated in the indicated concentrations of KH7 or KH7.15 for 24 hours and viability assessed by luciferase assay (FIG. 16A). […].
Therefore, the effect of sAC inhibitors on P. falciparum viability was tested. […].

[7] = test system: Rap1 activation; assay: NGF induced Rap1 activation in PC12 cells; format: cell-based; conditions: 15 minutes, KH7 50 μM
Method: FIG. 18 illustrates that NGF induced Rap1 activation is blocked by KH7 and rescued by membrane permeable cAMP. PC12 cells were stimulated with or without nerve growth factor (NGF) for 15 minutes in the presence or absence of KH7 (50 μM) and 1 mM 8Br-cAMP.

[8] = test system: CREB phosphorylation in isolated nuclei; assay: CREB phosphorylation in isolated HeLa nuclei (P2), Western analysis; format: biochemical; conditions: 40 mM bicarbonate, 50 μM KH7
Method: The resuspended pellet and 60% OptiPrep iodixanol were mixed (30% OptiPrep final) and centrifuged at 10,000 g for 20 min. The supernatant was removed and the nuclei-enriched pellet (P2) was resuspended in TM-2 buffer without detergent.
Reactions were stopped by the addition of 20 μl of SDS sample buffer (CREB phosphorylation) or by being placed into a 100° C. heat block for 3 min (adenylyl cyclase).
For whole cell and isolated nuclei CREB phosphorylation assays, equal cell or nuclear equivalents were separated under reducing conditions using a 10% SDS-PAGE, transferred to a PVDF membrane, and probed for CREB (rabbit polyclonal antiserum; Chemicon, Temecula, Calif.) and phosphorylated CREB (rabbit polyclonal antiserum; Upstate Biotechnology, Temecula, Calif.). HRP-conjugated secondary antibodies were used, and bands were visualized using ECL. Image analysis software (model Fluorchem 8800; Alpha Innotech, San Leandro, Calif.) was used to quantitate Western results. Intensities of phospho-CREB bands were normalized to total CREB.

[9] = glucose tolerance test in C57BL/6 mice; format: in vivo, mouse
Method: C57B1/6 adult male mice were maintained on a 12 hour light/dark cycle, with free access to water and standard laboratory chow (Research Animal Resource Center, Weill Medical College of Cornell University). Animals were treated in accordance with our institutions guidelines. After a 14-16 hour overnight fast with free access to water, blood was removed from the tail vein for glucose (Hemocue B-Glucose Microcuvette and Analyzer; Hemocue, Inc., Lake Forest, Calif.) and insulin (Rat/Mouse Insulin ELISA Kit; Linco Research) measurements. Mice then received an i.p injection of 100 mM KH7 (100 μmoles/kg) or vehicle control. Twenty minutes later, both groups were injected i.p. with 1 g/kg glucose (20% solution). Blood samples were taken from the tail vein at times indicated, and glucose and insulin were quantitated according to manufacturer's instructions.

[10] = target: T1, Type II tmAC (tmAC in extracts) (Homo sapiens, UniProt Q08462); assay: in vitro cyclase activity in extracts of cells overexpressing Type II tmAC; format: biochemical; conditions: cell printing μM
T1 construct: expressed in transfected cells
T1 sequence (Q08462 whole entry): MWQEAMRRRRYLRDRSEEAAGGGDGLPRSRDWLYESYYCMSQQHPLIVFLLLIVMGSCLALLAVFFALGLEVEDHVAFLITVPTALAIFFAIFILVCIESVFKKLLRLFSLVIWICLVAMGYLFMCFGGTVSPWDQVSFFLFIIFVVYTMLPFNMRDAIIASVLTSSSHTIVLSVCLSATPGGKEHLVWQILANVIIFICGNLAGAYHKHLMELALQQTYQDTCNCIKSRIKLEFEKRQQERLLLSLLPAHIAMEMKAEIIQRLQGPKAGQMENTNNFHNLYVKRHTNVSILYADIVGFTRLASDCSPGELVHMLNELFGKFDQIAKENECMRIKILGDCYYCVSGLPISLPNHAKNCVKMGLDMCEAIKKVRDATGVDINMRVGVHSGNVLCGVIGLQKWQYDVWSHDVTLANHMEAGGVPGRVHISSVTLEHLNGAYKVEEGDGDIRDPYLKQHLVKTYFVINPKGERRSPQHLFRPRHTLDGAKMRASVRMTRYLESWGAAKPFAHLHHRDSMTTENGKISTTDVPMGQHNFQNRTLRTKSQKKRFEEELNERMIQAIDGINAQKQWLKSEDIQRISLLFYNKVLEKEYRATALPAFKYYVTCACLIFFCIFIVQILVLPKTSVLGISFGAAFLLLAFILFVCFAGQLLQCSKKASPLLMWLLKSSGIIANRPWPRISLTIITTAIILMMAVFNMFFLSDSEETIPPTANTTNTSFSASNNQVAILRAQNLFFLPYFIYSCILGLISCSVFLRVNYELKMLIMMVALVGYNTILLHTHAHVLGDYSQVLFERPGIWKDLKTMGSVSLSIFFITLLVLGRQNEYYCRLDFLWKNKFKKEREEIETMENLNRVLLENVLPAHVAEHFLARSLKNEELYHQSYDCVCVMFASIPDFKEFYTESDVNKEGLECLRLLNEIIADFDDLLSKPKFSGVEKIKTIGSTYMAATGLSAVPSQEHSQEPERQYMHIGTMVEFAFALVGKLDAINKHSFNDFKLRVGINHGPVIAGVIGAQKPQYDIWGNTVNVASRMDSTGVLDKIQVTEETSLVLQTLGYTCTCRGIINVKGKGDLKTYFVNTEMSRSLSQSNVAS

[11] = test system: PfAC; assay: adenylyl cyclase activity in whole cell extract of isolated parasites; format: biochemical, Plasmodium falciparum; conditions: MnCl2 and ATP
[12] = test system: tmACs; assay: adenylyl cyclase activity in forskolin stimulated INS-1E cell lysate; conditions: forskolin (10 μM) stimulated INS-1E
Method: In vitro adenylyl cyclase assays were performed on purified recombinant human sACt protein as previously described in Litvin et al., “Kinetic Properties of “Soluble” Adenylyl Cyclase.

In the case of `CC(Sc1nc2ccccc2[nH]1)C(=O)N/N=C/c1cc(Br)ccc1O` (stereo not drawn) [KH7], the “IC50 for blocking glucose-induced cAMP, compared with sAC inhibition” value [1] is reported as “matched its dose response of sAC inhibition”, the “effect on cAMP induced by high glucose” value ([1]; 16 mM glucose, 30 μM KH7, 30 μM KH7.15, 50 μM 2-hydroxyestradiol, 50 μM 2′5′ddAdo) is reported as “blocked the cAMP induced by the presence of high glucose” and the IC50 [2] is reported as over 500 µM. For the same molecule, the “effect on CO2 induced differentiation into the filamentous, infectious stage” value [3] was “dose dependently inhibited”, the IC50 [4] was about 23 µM and the “effect on sAC overexpression-induced increase in insulin release” value [5] was “inhibited”. For the same molecule, the “effect on infectious growth in red blood cells” value [6] was “rapidly (in a single generation) and potently affected”, the “effect on NGF induced Rap1 activation” value [7] was “block NGF induced Rap1 activation; also recorded: blocked” and the “effect on bicarbonate-induced CREB phosphorylation” value [8] was “effective in preventing bicarbonate-induced CREB phosphorylation”. The “glucose-induced serum insulin release” value ([9]; 100 μmoles/kg KH7 i.p., 1 g/kg glucose i.p.) was “no statistically significant glucose-induced insulin release was detected”, the glucose tolerance ([9]; 100 μmoles/kg [49 mg/kg] KH7 i.p., 1 g/kg glucose i.p.) was “glucose intolerant” and the “glucose tolerance test one week after injection” value ([9]; one week after KH7, no further drug, n=2) was “normal glucose tolerance and insulin response”. The IC50 [10] was over 100 µM, the “dose response for inhibiting PfAC activity versus killing parasites” value [11] was “equal dose responses at killing parasites and at inhibiting PfAC activity” and the “effect on tmACs” value [12] was “inert towards tmACs”.
